Results taken from paper PMC10258898, “Discovery of Novel Hydroxyimine-Tethered Benzenesulfonamides as Potential Human Carbonic Anhydrase IX/XII Inhibitors” (ACS Medicinal Chemistry Letters, 2023).
Read-outs that look alike come from different tables or passages of the source.

Assays:
hCA IX = hCA IX (Homo sapiens, UniProt Q16790); assay: Stopped-flow CO2 hydrase assay, hCA IX inhibition
Description: (§1) as indicator, working at the absorbance maximum of 557 nm, with 20 mM Hepes (pH 7.5) as
(§2) buffer, and 20 mM Na2SO4 (for maintaining constant the ionic strength), following the initial
(§3) have been used for determining the initial velocity. The uncatalyzed rates were determined in
(§4) the same manner and subtracted from the total observed rates. Stock solutions of inhibitor
(§5) (0.1 mM) were prepared in distilled−deionized water and dilutions up to 0.01 nM were done
(§6) thereafter with the assay buffer. Inhibitor and enzyme solutions were preincubated together for 15 min at room temperature prior to assay, in order to allow for the formation of the E−I complex. The inhibition constants were subsequently obtained by nonlinear least-squares
(§7) methods using PRISM 3 and the Cheng−Prusoff equation, as reported earlier, and represent
(§8) the mean from at least three different determinations. All CA isofoms were recombinant ones
(§9) obtained in-house as reported earlier2,3.

hCA XII = hCA XII (Homo sapiens, UniProt O43570); assay: Stopped-flow CO2 hydrase assay, hCA XII inhibition; conditions: read-out: Ki (nM) hCA XII, mean from 3 different assays, errors ±5–10%
Sequence of hCA XII (O43570 25-354): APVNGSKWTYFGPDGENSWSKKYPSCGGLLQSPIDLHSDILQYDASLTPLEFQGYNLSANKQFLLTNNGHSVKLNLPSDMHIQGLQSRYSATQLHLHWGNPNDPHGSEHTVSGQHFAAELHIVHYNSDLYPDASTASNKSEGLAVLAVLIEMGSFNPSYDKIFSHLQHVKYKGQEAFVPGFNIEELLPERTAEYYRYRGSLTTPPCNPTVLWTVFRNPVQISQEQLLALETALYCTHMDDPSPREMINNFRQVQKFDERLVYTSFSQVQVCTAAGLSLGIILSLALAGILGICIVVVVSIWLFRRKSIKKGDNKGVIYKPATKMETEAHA
Description: as §1, §2, §3, §4, §5, §6, §7, §8, §9

[1] = read-out: Ki (nM) hCA IX, mean from 3 different assays, errors ±5–10%, stopped-flow CO2 hydrase assay

Row | Structure (SMILES) | melting point [°C] | Ki (hCA IX) [nM] | Ki (hCA IX; [1]) [nM] | Ki (hCA XII) [nM]
1 | NS(=O)(=O)c1ccc(N2CCN(C(=NO)c3ccc(Cl)cc3)CC2)cc1 [Compound 30] | 321 | 43 | – | –
2 | NS(=O)(=O)c1ccc(N2CCN(/C(=N/O)c3ccc(F)cc3)CC2)cc1 [Compound 33] | 263 | – | 1340 | –
3 | NS(=O)(=O)c1ccc(N2CCN(/C(=N/O)c3ccc([N+](=O)[O-])cc3)CC2)cc1 [Compound 32] | 302 to 303 | – | 912 | > 10000
4 | NS(=O)(=O)c1ccc(N2CCN(/C(=N/O)c3ccc(O)cc3)CC2)cc1 [Compound 28] | 320 to 321 | – | 1180 | –
5 | Cc1ccc(/C(=N\O)N2CCN(c3ccc(S(N)(=O)=O)cc3)CC2)cc1 [Compound 34] | 263 to 264 | – | > 10000 | –

Further molecules by falling Ki (hCA IX; [1]), results first:

Row | melting point [°C] | Ki (hCA IX) [nM] | Ki (hCA IX; [1]) [nM] | Ki (hCA XII) [nM] | Structure (SMILES)
6 | 310 to 311 | – | 739 | – | COc1ccc(/C(=N\O)N2CCN(c3ccc(S(N)(=O)=O)cc3)CC2)cc1 [Compound 31]
7 | – | – | 121 | – | NS(=O)(=O)c1ccc(N2CCN(/C(=N/O)c3ccccc3)CC2)cc1 [Compound 29]
8 | 310 to 311 | – | 110 | – | NS(=O)(=O)c1ccc(N2CCN(/C(=N/O)c3ccncc3)CC2)cc1 [Compound 27]
